# Measurements reported in US20230107642A1 (Erasca, Inc., priority 2020, published 2023).
# Target: T1, Cys12 of the KRAS 4B G12C protein (Homo sapiens, UniProt P01116, G12C)
# T1 construct: This protein contained 188 amino acids in total, including an N-terminal 6-Histidine tag; made in house; host or cells: E. coli BL21
# Assay: In vitro covalent adduct formation (CAF) assay, LC-MS intact mass
# Assay type: binding
# Conditions: 10 uM compound, 60 min
# Method in brief: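 GDP-loaded (>95%) His-TEV-tagged KRAS 4B G12C (residues 1–169), 5 μM in TBS pH 7.4, incubated with 10 μM compound (4% DMSO) at 22° C for one hour. Intact-protein LC-MS gave free:adduct ratios, reported as percent protein modified; duplicate runs.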
row,% CAF 10 uM @ 60 min [%],SMILES
1,96.3,"C=CC(=O)N1[C@H](C)CN(c2nc(=O)n3c4c(c(-c5ccc(F)cc5F)c(C(F)(F)F)cc24)SC[C@@H]3COCOC)C[C@@H]1C (atropisomer, axis not shown) [Example 1319, (3S,10S)-7-((3S,5R)-4-acryloyl-3,5-dimethylpiperazin-1-yl)-10-(2,4-difluorophenyl)-3-((methoxymethoxy)methyl)-9-(trifluoromethyl)-2,3-dihydro-5H-[1,4]thiazino[2,3,4-ij]quinazolin-5-one]"
2,96.5,"C=CC(=O)N1[C@H](C)CN(c2nc(=O)n3c4c(c(-c5ccc(F)cc5)c(C(F)(F)F)cc24)SCC(COC)(COC)C3)C[C@@H]1C [Example 1409, 8-((3S,5R)-4-acryloyl-3,5-dimethylpiperazin-1-yl)-11-(4-fluorophenyl)-3,3-bis(methoxymethyl)-10-(trifluoromethyl)-3,4-dihydro-[1,4]thiazepino[2,3,4-ij]quinazolin-6(2H)-one]"
3,95.4,"[2H]C([2H])([2H])OC[C@H]1CSc2c(-c3ccc(F)cc3F)c(C(F)(F)F)cc3c(N4C[C@@H](C)N(C(=O)C=C)[C@@H](C)C4)nc(=O)n1c23 [Example 1418, (3S)-7-((3S,5R)-4-acryloyl-3,5-dimethylpiperazin-1-yl)-10-(2,4-difluorophenyl)-3-((methoxy-d3)methyl)-9-(trifluoromethyl)-2,3-dihydro-5H-[1,4]thiazino[2,3,4-ij]quinazolin-5-one]"
4,86.3,"C=CC(=O)N1C[C@H](C)N(c2nc(=O)n3c4c(c(-c5ccc(F)cc5F)c(C(F)(F)F)cc24)SC[C@@H]3COCOC)C[C@H]1C (atropisomer, axis not shown) [Example 1327, (3S,10R)-7-((2S,5R)-4-acryloyl-3,5-dimethylpiperazin-1-yl)-10-(2,4-difluorophenyl)-3-((methoxymethoxy)methyl)-9-(trifluoromethyl)-2,3-dihydro-5H-[1,4]thiazino[2,3,4-ij]quinazolin-5-one]"
5,95.4,"[2H]C([2H])=C([2H])C(=O)N1[C@H](C)CN(c2nc(=O)n3c4c(c(-c5cc(Cl)c(F)cc5F)c(C(F)(F)F)cc24)SC[C@@H]3COC)C[C@@H]1C (atropisomer, axis not shown) [Example 1393, (3S,10R)-7-((3S,5R)-4-(acryloyl-d3)-3,5-dimethylpiperazin-1-yl)-10-(5-chloro-2,4-difluorophenyl)-3-(methoxymethyl)-9-(trifluoromethyl)-2,3-dihydro-5H-[1,4]thiazino[2,3,4-ij]quinazolin-5-one]"
6,95.5,"C=CC(=O)N1[C@H](C)CN(c2nc(=O)n3c4c(c(-c5ccc(F)cc5)c(C(F)(F)F)cc24)SC[C@H](CO)C3)C[C@@H]1C [Example 1399, (S)-8-((3S,5R)-4-acryloyl-3,5-dimethylpiperazin-1-yl)-11-(4-fluorophenyl)-3-(hydroxymethyl)-10-(trifluoromethyl)-3,4-dihydro-2H,6H-[1,4]thiazepino[2,3,4-ij]quinazolin-6-one]"
7,85.5,"C=CC(=O)N1[C@H](C)CN(c2nc(=O)n3c4c(c(-c5ccc(F)c(Cl)c5)c(C(F)(F)F)cc24)SC[C@H](N2CCOCC2)C3)C[C@@H]1C [Example 1336, (R)-8-((3S,5R)-4-acryloyl-3,5-dimethylpiperazin-1-yl)-11-(3-chloro-4-fluorophenyl)-3-morpholino-10-(trifluoromethyl)-3,4-dihydro-2H,6H-[1,4]thiazepino[2,3-4-ij]quinazolin-6-one]"
8,73,"C=CC(=O)N1[C@H](C)CN(c2nc(=O)n3c4c(c(-c5cc(Cl)c(F)cc5F)c(C(F)(F)F)cc24)SC[C@@H]3CN2CC[C@H](F)C2)C[C@@H]1C (atropisomer, axis not shown) [Example 1439, (3S,10R)-7-((3S,5R)-4-acryloyl-3,5-dimethylpiperazin-1-yl)-10-(5-chloro-2,4-difluorophenyl)-3-(((S)-3-fluoropyrrolidin-1-yl)methyl)-9-(trifluoromethyl)-2,3-dihydro-5H-[1,4]thiazino[2,3,4-ij]quinazolin-5-one]"

# Same assay, conditions: 10 uM compound, 60 min incubation
row,% CAF 10 uM @ 60 min [%],SMILES
1,96.9,"C=CC(=O)N1[C@H](C)CN(c2nc(=O)n3c4c(c(-c5ccc(F)cc5)c(C(F)(F)F)cc24)SCC2(COC2)C3)C[C@@H]1C [Example 1117, 8′-((3S,5R)-4-acryloyl-3,5-dimethylpiperazin-1-yl)-11′-(4-fluorophenyl)-10′-(trifluoromethyl)-2′H,4′H,6′H-spiro[oxetane-3,3′-[1,4]thiazepino [2,3,4-ij]quinazolin]-6′-one]"
2,72.7,"C=CC(=O)N1[C@H](C)CN(c2nc(=O)n3c4c(c(-c5cc(Cl)c(F)cc5F)c(C(F)(F)F)cc24)SC[C@@H](N2CCOCC2)C3)C[C@@H]1C (atropisomer, axis not shown) [Example 1135, (3S,11S)-8-((3S,5R)-4-acryloyl-3,5-dimethylpiperazin-1-yl)-11-(5-chloro-2,4-difluorophenyl)-3-morpholino-10-(trifluoromethyl)-3,4-dihydro-2H,6H-[1,4]thiazepino [2,3,4-ij]quinazolin-6-one]"
3,85.6,"C=CC(=O)N1[C@H](C)CN(c2nc(=O)n3c4c(c(-c5cccc6cnn(C)c56)c(C(F)(F)F)cc24)SCC2(COC2)C3)C[C@@H]1C (atropisomer, axis not shown) [Example 1132, (S)-8′-((3S,5R)-4-acryloyl-3,5-dimethylpiperazin-1-yl)-11′-(1-methyl-1H-indazol-7-yl)-10′-(trifluoromethyl)-2′H,4′H,6′H-spiro[oxetane-3,3′-[1,4]thiazepino [2,3,4-ij]quinazolin]-6′-one]"
4,93,"C=CC(=O)N1C[C@H](C)N(c2nc(=O)n3c4c(c(-c5ccc(F)cc5F)c(C(F)(F)F)cc24)SCC2(COC2)C3)C[C@H]1C (atropisomer, axis not shown) [Example 1109, (S)-8′-((2S,5R)-4-acryloyl-2,5-dimethylpiperazin-1-yl)-11′-(2,4-difluorophenyl)-10′-(trifluoromethyl)-2′H,4′H,6′H-spiro[oxetane-3,3′-[1,4]thiazepino [2,3,4-ij]quinazolin]-6′-one]"
5,96.8,"C=CC(=O)N1[C@H](C)CN(c2nc(=O)n3c4c(c(-c5ccc(F)cc5F)c(Cl)cc24)SC[C@@H]3COC)C[C@@H]1C [Example 1113, (3S)-7-((3S,5R)-4-acryloyl-3,5-dimethylpiperazin-1-yl)-9-chloro-10-(2,4-difluorophenyl)-3-(methoxymethyl)-2,3-dihydro-5H-[1,4]thiazino[2,3,4-ij]quinazolin-5-one]"

# Same assay, conditions: 10 μM compound, after 1 hour
row,CAF (% after 1 hour) [%],SMILES
1,90,"C=CC(=O)N1[C@H](C)CN(c2nc(=O)n3c4c(c(-c5cc(Cl)c(F)cc5F)c(C(F)(F)F)cc24)SCC2(CC2)C3)C[C@@H]1C [Example 1237, 8′-((3S,5R)-4-acryloyl-3,5-dimethylpiperazin-1-yl)-11′-(5-chloro-2,4-difluorophenyl)-10′-(trifluoromethyl)-2′H,4′H,6′H-spiro[cyclopropane-1,3′-[1,4]thiazepino[2,3,4-ij]quinazolin]-6′-one]"
2,95,"C=CC(=O)N1[C@H](C)CN(c2nc(=O)n3c4c(c(-c5ccc(F)cc5)c(C(F)(F)F)cc24)SC[C@@H](OCC)C3)C[C@@H]1C [Example 1203, (S)-8-((3S,5R)-4-acryloyl-3,5-dimethylpiperazin-1-yl)-3-ethoxy-11-(4-fluorophenyl)-10-(trifluoromethyl)-3,4-dihydro-2H,6H-[1,4]thiazepino[2,3,4-ij]quinazolin-6-one]"
3,94,"C=CC(=O)N1[C@H](C)CN(c2nc(=O)n3c4c(c(-c5cc(Cl)c(F)cc5F)c(C(F)(F)F)cc24)SC[C@@H](Oc2ccncc2)C3)C[C@@H]1C [Example 1234, (3S)-8-((3S,5R)-4-acryloyl-3,5-dimethylpiperazin-1-yl)-11-(5-chloro-2,4-difluorophenyl)-3-(pyridin-4-yloxy)-10-(trifluoromethyl)-3,4-dihydro-2H,6H-[1,4]thiazepino[2,3,4-ij]quinazolin-6-one]"
4,57,"C=C(F)C(=O)N1CCN(c2nc(=O)n3c4c(c(-c5ccc(F)cc5)c(C(F)(F)F)cc24)SC[C@@H](OC)C3)CC1 [Example 1223, (S)-8-(4-(2-Fluoroacryloyl)piperazin-1-yl)-11-(4-fluorophenyl)-3-methoxy-10-(trifluoromethyl)-3,4-dihydro-2H,6H-[1,4]thiazepino[2,3,4-ij]quinazolin-6-one]"

# Same assay, conditions: after 60 min
row,CAF (% binding after 60 min) [%],SMILES
1,97,"C=CC(=O)N1CCN(c2nc(=O)n3c4c(c(-c5ccc(F)cc5)c(C(F)(F)F)cc24)SC[C@H](O)C3)CC1 [Example 1002, (R)-8-(4-acryloylpiperazin-1-yl)-11-(4-fluorophenyl)-3-hydroxy-10-(trifluoromethyl)-3,4-dihydro-2H,6H-[1,4]thiazepino[2,3,4-ij]quinazolin-6-one]"
2,96,"C=CC(=O)N1CCN(c2nc(=O)n3c4c(c(-c5ccc(F)cc5)c(C(F)(F)F)cc24)SC[C@H](OC)C3)CC1 [Example 1037, (R)-8-(4-acryloylpiperazin-1-yl)-11-(4-fluorophenyl)-3-methoxy-10-(trifluoromethyl)-3,4-dihydro-2H,6H-[1,4]thiazepino[2,3,4-ij]quinazolin-6-one]"
3,92,"C=CC(=O)N1[C@H](C)CN(c2nc(=O)n3c4c(c(-c5ccc(F)cc5)c(C(F)(F)F)cc24)SC[C@@H](N)C3)C[C@@H]1C [Example 1032, (S)-8-((3S,5R)-4-acryloyl-3,5-dimethylpiperazin-1-yl)-3-amino-11-(4-fluorophenyl)-10-(trifluoromethyl)-3,4-dihydro-2H,6H-[1,4]thiazepino[2,3,4-ij]quinazolin-6-one]"
